Experiments:
[1] = system: dystrophin protein; test: Dystrophin protein in DMD patient-derived cell line, Western blotting; format: cell-based, human; details: 5 μM for 12 hours, FIG. 11
[2] = system: UPF1; test: Effect on phosphorylation of UPF1, western blotting; format: cell-based; details: 5 μM for 12 hours, FIG. 5
Protocol: Phosphorylation of UPFI was known to be one of the most important factors in NMD. In Example 3.1, the effect of the three types of compounds of the present invention on phosphorylation of UPFI was examined. The cells were treated with each compound at 5 μM for 12 hours, and then total proteins were purified. Then, western blotting was performed using each antibody capable of recognizing Upfl or Upfl phosphorylated at a specific site.

[3] = system: β-6bs mRNA (reporter mRNA); test: Tethering of MS2-Upf1, MS2-Upf2, MS2-Upf3 to 3' UTR of reporter mRNA in HeLa cell line, real-time PCR; format: cell-based; details: 5 μM for 6 hours or 12 hours; FIGS. 8 and 9
Protocol: An NMD-based search system capable of artificially reducing the amount of reporter mRNA was constructed, after artificially tethering proteins Upf1, Upf2, and Upf3X acting in each step of NMD to 3′ UTR of reporter mRNA (FIG. 7). Using this method, it was attempted to verify which step of NMD the three types of compounds acted on.
After treating the cell line with each compound at 5 μM for 6 hours or 12 hours, a cell extract was obtained. Thereafter, the relative amount of reporter mRNA was measured through real-time PCR.

[4] = system: HeLa cell line constitutively expressing the NMD-target mRNA (RLuc-beta-globin PTC); test: NMD reporter HeLa cell lines (NMD20, NMD4, NMD5), RLuc/FLuc dual luciferase assay; format: cell-based; details: 5 μM for 12 hours, FIG. 4
Protocol: In Example 1, a beta-globin normal gene or the gene including a premature termination codon (PTC) found in genetic diseases was inserted into the downstream of a chemiluminescence gene, Renilla luciferase (RLuc). Normal gene-inserted mRNA was not targeted by NMD, whereas when a gene having PTC was inserted, the mRNA became a NMD target, and as a result, mRNA was quickly broken down and the expression level of RLuc was reduced. […]
First, each of the prepared cell lines was treated with caffeine, which was known as a non-specific NMD inhibitor, to confirm the degree of RLuc activity to FLuc activity. […] Then, the expression levels of RLuc and FLuc proteins were measured by dual luciferase assay.
Additionally, it was attempted to determine whether the prepared HeLa cell line was suitable for performing high-throughput screening (HTS). Experiments were performed by optimizing the conditions such as the number of cells, the amounts of used reagent and buffer, and the like in a 384-well format to be suitable for HTS (FIG. 3), and NMD efficiency was measured using Wortmannin, which was a non-specific NMD inhibitor, as a control substance. […]
The NMD inhibitory effect of Compounds 1 to 3 was confirmed using the HeLa cell line prepared in Example 1. […] Then, the amounts of RNA and protein were quantified respectively through real-time PCR and dual luciferase assay methods. […]

[5] = biological target: T1, UPF1 and UPF2 (Homo sapiens, UniProt Q92900+Q9HAU5); test: Effect on binding between UPF1 and UPF2, FLAG-UPF1 immunoprecipitation and western blotting; format: cell-based; details: 5 μM for 1 hour; FLAG immunoprecipitation; FIG. 6
T1 construct: expressed in transfected cells
T1 sequence (Q92900 1-1129): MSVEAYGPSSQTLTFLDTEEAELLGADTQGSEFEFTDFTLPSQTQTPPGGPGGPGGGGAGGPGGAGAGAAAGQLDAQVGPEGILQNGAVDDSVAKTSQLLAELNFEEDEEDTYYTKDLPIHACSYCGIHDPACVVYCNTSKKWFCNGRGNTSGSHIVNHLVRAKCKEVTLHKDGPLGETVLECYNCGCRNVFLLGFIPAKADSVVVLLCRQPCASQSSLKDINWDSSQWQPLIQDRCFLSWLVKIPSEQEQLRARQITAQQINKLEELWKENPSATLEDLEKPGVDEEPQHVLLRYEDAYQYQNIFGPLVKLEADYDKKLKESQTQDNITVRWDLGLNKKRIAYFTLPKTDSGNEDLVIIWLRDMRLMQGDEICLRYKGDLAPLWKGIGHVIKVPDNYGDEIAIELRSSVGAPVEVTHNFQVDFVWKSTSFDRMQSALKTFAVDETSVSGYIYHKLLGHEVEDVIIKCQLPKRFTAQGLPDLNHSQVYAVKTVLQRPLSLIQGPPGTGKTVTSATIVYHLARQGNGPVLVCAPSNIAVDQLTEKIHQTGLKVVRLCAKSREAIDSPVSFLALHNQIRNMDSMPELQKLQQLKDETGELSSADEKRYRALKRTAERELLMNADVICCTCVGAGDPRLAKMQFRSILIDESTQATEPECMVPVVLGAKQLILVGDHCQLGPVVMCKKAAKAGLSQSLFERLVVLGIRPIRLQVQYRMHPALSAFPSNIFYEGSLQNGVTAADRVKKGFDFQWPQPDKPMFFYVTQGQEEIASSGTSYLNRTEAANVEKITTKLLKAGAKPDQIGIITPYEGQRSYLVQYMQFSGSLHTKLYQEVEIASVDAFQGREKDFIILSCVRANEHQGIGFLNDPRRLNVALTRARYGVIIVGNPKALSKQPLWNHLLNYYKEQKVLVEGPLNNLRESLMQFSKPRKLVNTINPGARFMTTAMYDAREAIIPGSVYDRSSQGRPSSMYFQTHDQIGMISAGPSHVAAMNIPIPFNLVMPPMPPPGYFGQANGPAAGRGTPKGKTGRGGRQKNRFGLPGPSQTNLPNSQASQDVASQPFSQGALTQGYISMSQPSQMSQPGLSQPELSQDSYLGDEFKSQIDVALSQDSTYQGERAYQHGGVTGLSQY
T1 sequence (Q9HAU5 1-1272): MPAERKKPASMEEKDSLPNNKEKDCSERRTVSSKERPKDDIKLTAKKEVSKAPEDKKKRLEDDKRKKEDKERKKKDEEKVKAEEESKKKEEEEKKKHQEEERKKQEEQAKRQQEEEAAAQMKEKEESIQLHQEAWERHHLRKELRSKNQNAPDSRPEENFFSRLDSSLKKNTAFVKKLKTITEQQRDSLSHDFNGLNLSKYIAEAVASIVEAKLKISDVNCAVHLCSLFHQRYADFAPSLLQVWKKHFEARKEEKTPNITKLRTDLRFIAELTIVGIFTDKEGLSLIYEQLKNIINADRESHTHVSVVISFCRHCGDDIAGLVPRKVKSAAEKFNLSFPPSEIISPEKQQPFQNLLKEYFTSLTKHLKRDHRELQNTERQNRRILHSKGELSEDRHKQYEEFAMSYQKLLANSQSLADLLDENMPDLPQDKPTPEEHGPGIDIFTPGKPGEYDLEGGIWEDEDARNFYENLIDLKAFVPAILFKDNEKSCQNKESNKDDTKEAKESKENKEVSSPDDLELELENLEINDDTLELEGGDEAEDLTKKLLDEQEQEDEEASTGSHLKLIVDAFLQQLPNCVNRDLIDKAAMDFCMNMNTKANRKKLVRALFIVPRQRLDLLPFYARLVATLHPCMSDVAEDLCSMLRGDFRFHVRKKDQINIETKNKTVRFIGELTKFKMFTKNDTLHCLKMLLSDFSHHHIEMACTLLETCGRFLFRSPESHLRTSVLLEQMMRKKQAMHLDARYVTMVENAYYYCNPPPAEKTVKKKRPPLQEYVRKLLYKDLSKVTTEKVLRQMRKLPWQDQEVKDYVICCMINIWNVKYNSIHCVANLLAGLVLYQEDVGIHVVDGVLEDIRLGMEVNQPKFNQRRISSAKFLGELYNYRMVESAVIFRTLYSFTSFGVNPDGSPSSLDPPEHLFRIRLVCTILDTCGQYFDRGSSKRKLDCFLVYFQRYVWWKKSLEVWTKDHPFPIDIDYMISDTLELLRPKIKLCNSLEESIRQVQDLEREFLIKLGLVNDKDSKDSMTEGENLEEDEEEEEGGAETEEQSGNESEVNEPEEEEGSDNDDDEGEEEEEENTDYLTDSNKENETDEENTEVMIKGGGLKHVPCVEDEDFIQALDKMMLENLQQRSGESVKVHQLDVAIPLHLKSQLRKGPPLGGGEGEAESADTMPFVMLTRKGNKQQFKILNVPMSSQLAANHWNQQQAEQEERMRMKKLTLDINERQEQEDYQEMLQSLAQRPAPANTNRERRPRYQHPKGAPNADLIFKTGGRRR
Protocol: In the cell line, DNA expressing FLAG-UPF1 was transiently overexpressed.
After treating the cell line with each compound at 5 μM for 1 hour, a cell extract was obtained. Immunoprecipitation was performed on the cell extract obtained using a FLAG antibody.
Proteins before and after immunoprecipitation were analyzed by western blotting.

[6] = system: HeLa cell line constitutively expressing the NMD-target mRNA (RLuc-beta-globin PTC); test: NMD reporter HeLa cell line, RLuc mRNA by real-time PCR; format: cell-based; details: 5 μM for 12 hours, FIG. 4
From the text: In Example 1, a beta-globin normal gene or the gene including a premature termination codon (PTC) found in genetic diseases was inserted into the downstream of a chemiluminescence gene, Renilla luciferase (RLuc). Normal gene-inserted mRNA was not targeted by NMD, whereas when a gene having PTC was inserted, the mRNA became a NMD target, and as a result, mRNA was quickly broken down and the expression level of RLuc was reduced.
Accordingly, a HeLa cell line constitutively expressing the NMD-target mRNA was prepared, and simultaneously, the cell line was designed to constitutively express a firefly luciferase (FLuc) gene, which was not a target of NMD, and a total of three cell lines NMD20, NMD4, and NMD5 with the same composition were obtained. In order to confirm whether the HeLa cell line prepared above was suitable for measuring NMD efficiency, the following two experiments were performed.
The NMD inhibitory effect of Compounds 1 to 3 was confirmed using the HeLa cell line prepared in Example 1. After treating the cells with Compounds 1 to 3 at 5 μM for 12 hours, respectively, total RNA and protein were purified from the cells, respectively. Then, the amounts of RNA and protein were quantified respectively through real-time PCR and dual luciferase assay methods. The results were illustrated in FIG. 4.

COc1ncc(-c2ccc3nccc(-c4ccnnc4)c3c2)cc1NS(=O)(=O)c1ccc(F)cc1F [Compound 1, 2,4-Difluoro-N-{2-(methyloxy)-5-[4-(4-pyridazinyl)-6-quinolinyl]-3-pyridinyl} benzenesulfonamide]
amount of dystrophin protein expressed in cells [1]: increased | phosphorylation of UPF1 [2]: did not significantly affect | NMD step targeted (relative amount of reporter mRNA) [3]: targeted a UPF1-UPF2 step | protein translation of RLuc [4]: increased | UPF1-UPF2 binding [5]: significantly inhibited

Cn1c(=O)n(-c2ccc(C(C)(C)C#N)cc2)c2c3cc(-c4cnc5ccccc5c4)ccc3ncc21 [Compound 2, 2-methyl-2-{4-[3-methyl-2-oxo-8-(quinolin-3-yl)-2,3-dihydro-1H-imidazo[4,5-c]quinolin-1-yl]phenyl} propanenitrile]
phosphorylation of UPF1 [2]: significantly inhibited | NMD step targeted (relative amount of reporter mRNA) [3]: did not target the UPF1-UPF2 and UPF2-UPF3 steps | amount of RLuc mRNA [6]: significantly increased | UPF1-UPF2 binding [5]: did not significantly affect

COc1cc2ncnc(-n3nc(-c4ccccn4)nc3N)c2cc1OC [Compound 3, 1-(6,7-Dimethoxy-4-quinazolinyl)-3-(2-pyridinyl)-1H-1,2,4-Triazol-5-amine]
phosphorylation of UPF1 [2]: did not significantly affect | NMD step targeted (relative amount of reporter mRNA) [3]: did not target the UPF1-UPF2 and UPF2-UPF3 steps | amount of RLuc mRNA [6]: significantly increased | UPF1-UPF2 binding [5]: did not significantly affect

Reference: US20240156805A1, “COMPOUND FOR INHIBITING NONSENSE-MEDIATED MRNA DECAY” (RIBOTECH CO., LTD., priority 2021, published 2024)
